Calls of active or inactive are those of the source. The calls are words filed in the database; no cut-off is given here.
Assays:
[1] = Inhibition of parasite-specific trypanothione reductase
[2] = Inhibition of Trypanosoma brucei GAPDH
Acetylcholinesterase [3] = molecular target: T1, Acetylcholinesterase (Homo sapiens, UniProt P22303); test: Inhibition of human recombinant AChE using acetylthiocholine iodide as substrate after 20 mins by Ellmans method
Trypanosoma brucei = test: Antitrypanosomal activity against Trypanosoma brucei; format: functional, organism-based
L6 = test: Cytotoxicity against rat L6 cells; format: cell-based
[4] = tested on: Trypanosoma brucei rhodesiense; test: Antitrypanosomal activity against bloodstream forms of Trypanosoma brucei rhodesiense; format: functional; settings: read-out: ED50 (the source's name)
[5] = Selectivity index, ratio of ED50 for mammalian cells to ED50 for Trypanosoma brucei rhodesiense; format: toxicity; settings: read-out: Ratio ED50
Acetylcholinesterase [6] = molecular target: T1, Acetylcholinesterase; test: Inhibition of human recombinant AChE using acetylthiocholine iodide as substrate after 20 mins by Ellmans method relative to dimebon
[7] = molecular target: T2, Amyloid-beta precursor protein (Homo sapiens, UniProt P05067); test: Inhibition of self-mediated amyloid beta (1 to 42) aggregation (unknown origin) at 10 uM after 24 hrs by thioflavin T fluorometric assay
T2 sequence (P05067 whole entry): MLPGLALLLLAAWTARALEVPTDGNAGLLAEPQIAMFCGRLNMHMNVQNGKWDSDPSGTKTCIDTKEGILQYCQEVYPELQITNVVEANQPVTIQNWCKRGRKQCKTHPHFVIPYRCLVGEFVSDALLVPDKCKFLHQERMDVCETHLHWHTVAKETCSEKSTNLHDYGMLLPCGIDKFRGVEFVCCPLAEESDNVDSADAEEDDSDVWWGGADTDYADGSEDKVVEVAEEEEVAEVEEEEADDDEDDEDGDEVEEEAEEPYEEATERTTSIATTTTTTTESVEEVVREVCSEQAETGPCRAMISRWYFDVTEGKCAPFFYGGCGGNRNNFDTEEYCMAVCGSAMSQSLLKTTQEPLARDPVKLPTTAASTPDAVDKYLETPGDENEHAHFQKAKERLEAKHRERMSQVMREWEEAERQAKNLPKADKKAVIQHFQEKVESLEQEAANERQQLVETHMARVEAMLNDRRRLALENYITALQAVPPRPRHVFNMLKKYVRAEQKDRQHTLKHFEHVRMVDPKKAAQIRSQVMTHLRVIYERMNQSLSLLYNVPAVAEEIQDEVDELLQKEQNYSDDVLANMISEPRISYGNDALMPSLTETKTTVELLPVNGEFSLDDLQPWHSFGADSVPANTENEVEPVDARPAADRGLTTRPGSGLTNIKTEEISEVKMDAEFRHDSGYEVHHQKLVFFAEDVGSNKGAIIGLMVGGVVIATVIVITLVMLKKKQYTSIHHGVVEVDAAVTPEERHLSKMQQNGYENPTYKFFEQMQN

[8] = molecular target: Glutamate NMDA receptor; GRIN1/GRIN2A (Homo sapiens, UniProt Q05586+Q12879); test: Inhibition of NMDA receptor (unknown origin) at 100 mV; format: protein-complex assay
Sequence of Glutamate NMDA receptor; GRIN1/GRIN2A (Q12879 whole entry, other chains not shown): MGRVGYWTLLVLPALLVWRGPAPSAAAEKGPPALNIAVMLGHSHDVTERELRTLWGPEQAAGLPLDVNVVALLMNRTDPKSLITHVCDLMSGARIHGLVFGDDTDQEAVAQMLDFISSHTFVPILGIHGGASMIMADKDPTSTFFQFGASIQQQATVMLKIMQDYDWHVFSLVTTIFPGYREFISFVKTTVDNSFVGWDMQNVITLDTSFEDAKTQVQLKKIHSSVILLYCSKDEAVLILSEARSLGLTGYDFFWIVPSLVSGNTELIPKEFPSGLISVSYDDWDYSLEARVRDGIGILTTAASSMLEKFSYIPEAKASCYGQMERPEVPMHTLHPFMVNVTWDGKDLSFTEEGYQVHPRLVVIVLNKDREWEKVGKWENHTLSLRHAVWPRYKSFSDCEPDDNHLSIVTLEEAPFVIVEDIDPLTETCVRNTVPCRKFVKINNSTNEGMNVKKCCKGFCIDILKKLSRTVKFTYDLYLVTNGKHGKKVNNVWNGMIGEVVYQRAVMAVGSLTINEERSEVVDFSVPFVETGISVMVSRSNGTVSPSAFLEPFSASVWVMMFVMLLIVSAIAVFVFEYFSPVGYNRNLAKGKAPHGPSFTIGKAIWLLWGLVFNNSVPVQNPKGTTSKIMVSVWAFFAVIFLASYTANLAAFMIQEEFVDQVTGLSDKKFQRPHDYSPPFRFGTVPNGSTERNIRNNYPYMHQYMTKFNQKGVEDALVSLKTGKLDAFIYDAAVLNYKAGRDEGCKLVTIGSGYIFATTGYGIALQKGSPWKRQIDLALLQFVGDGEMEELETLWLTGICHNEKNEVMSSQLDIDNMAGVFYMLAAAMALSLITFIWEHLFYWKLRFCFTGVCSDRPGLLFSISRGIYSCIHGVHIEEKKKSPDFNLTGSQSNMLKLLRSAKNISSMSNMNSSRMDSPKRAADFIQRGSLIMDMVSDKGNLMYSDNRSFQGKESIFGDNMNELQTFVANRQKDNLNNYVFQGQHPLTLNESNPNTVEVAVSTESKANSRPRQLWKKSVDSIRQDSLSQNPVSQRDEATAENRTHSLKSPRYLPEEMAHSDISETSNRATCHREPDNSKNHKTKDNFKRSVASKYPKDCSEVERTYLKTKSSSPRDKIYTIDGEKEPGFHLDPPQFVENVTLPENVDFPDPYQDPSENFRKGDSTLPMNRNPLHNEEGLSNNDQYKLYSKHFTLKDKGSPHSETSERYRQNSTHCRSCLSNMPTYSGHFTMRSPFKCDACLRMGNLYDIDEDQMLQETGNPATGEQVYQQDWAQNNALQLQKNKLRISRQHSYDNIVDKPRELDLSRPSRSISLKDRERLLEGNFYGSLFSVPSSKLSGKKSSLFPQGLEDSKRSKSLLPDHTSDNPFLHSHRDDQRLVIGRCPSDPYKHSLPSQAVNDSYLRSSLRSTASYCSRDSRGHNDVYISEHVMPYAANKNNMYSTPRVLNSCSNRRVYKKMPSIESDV

[9] = molecular target: T2, Amyloid-beta precursor protein; test: Inhibition of self-mediated amyloid beta (1 to 42) aggregation (unknown origin) after 24 hrs by thioflavin T fluorometric assay

T1 sequence (P22303 whole entry): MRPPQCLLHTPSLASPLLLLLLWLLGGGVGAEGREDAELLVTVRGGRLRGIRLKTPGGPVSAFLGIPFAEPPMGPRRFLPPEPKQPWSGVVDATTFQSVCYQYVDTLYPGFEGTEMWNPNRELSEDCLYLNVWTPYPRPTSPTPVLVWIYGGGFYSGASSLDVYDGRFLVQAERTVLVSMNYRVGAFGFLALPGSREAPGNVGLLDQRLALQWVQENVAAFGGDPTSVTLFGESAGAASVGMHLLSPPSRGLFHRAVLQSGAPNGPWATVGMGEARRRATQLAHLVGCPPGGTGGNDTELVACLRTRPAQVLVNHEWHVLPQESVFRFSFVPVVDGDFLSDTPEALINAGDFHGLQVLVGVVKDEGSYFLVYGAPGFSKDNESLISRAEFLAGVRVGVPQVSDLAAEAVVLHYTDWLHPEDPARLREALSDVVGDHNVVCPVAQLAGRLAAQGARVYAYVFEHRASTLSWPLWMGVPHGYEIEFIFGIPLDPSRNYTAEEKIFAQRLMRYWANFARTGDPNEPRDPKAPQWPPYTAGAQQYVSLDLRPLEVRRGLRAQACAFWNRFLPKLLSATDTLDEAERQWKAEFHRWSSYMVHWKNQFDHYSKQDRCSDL

Row | Compound | IC50 (Acetylcholinesterase [3]) | inhibition [7] | IC50 [8] | other results
1 | CN(C)CCOc1cc2ccc(OC3=CC(=O)c4cc5ccccc5cc4C3=O)cc2oc1=O |  |  |  | Ki [1]: 2.7 µM; IC50 [2]: 5.4 µM
2 | CCN(CCCCCCNC1=CC(=O)C(NCCCCCCN(CC)Cc2ccccc2OC)=CC1=O)Cc1ccccc1OC [MEMOQUIN] | 15.4 µM |  |  | 
3 | CN(C)CCCOc1ccc2oc(=O)c(-c3ccc(OC4=CC(=O)c5cc6ccccc6cc5C4=O)cc3)cc2c1 |  |  |  | EC50 (Trypanosoma brucei): 0.026 µM; Activity (L6): 7.95 µM
4 | O=C1C=C(Oc2ccccc2)C(=O)c2ccccc21 |  |  |  | EC50 [4]: 0.08 µM; selectivity ratio [5]: 74
5 | Cc1ccc2[nH]c3c(c2c1)CN(CCCCCCN1CCc2[nH]c4ccc(C)cc4c2C1)CC3 | 0.19 µM | 35.6% | 11 µM | fold change (FC) (Acetylcholinesterase [6]): 128
6 | Cc1ccc2[nH]c3c(c2c1)CN(CCCCCCCN1CCc2[nH]c4ccc(C)cc4c2C1)CC3 | 0.69 µM | 35.2% | 12.6 µM | fold change (FC) (Acetylcholinesterase [6]): 128
7 | Cc1ccc2c(c1)c1c(n2CCc2ccc(C)nc2)CCN(C)C1 [LATREPIRDINE] |  | inactive | 13.9 µM | 
8 | O=C(Cc1ccccc1Nc1c(Cl)cccc1Cl)NCCCNCCCNC1=CC(=O)C(NCCCNCCCNC(=O)Cc2ccccc2Nc2c(Cl)cccc2Cl)=CC1=O | 0.6 µM |  |  | IC50 [9]: 3.11 µM
